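Five concentrations, 48 hours, 96-well plates. At the GI50, growth is halved. TGI is the concentration that stops growth completely.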
Experiments:
Experiment in all cases: NCI-60 cell line screen, 48 h
786-0 renal = system: 786-0 renal
A498 renal = system: A498 renal
A549 NSCLC = system: A549 NSCLC
ACHN renal = system: ACHN renal
BT-549 breast = system: BT-549 breast
CAKI-1 renal = system: CAKI-1 renal
CCRF-CEM leukemia = system: CCRF-CEM leukemia
COLO 205 colon = system: COLO 205 colon
DU-145 prostate = system: DU-145 prostate
EKVX NSCLC = system: EKVX NSCLC
HCC-2998 colon = system: HCC-2998 colon
HCT-116 colon = system: HCT-116 colon
HCT-15 colon = system: HCT-15 colon
HL-60(TB) leukemia = system: HL-60(TB) leukemia
HOP-62 NSCLC = system: HOP-62 NSCLC
HOP-92 NSCLC = system: HOP-92 NSCLC
HS 578T breast = system: HS 578T breast
HT29 colon = system: HT29 colon
IGROV1 ovarian = system: IGROV1 ovarian
K-562 leukemia = system: K-562 leukemia
KM12 colon = system: KM12 colon
M14 melanoma = system: M14 melanoma
MALME-3M melanoma = system: MALME-3M melanoma
MCF7 breast = system: MCF7 breast
MDA-MB-231 breast = system: MDA-MB-231 breast
MDA-MB-435 = system: MDA-MB-435
MOLT-4 leukemia = system: MOLT-4 leukemia
NCI-H226 lung = system: NCI-H226 lung
NCI-H23 lung = system: NCI-H23 lung
NCI-H460 lung = system: NCI-H460 lung
NCI-H522 lung = system: NCI-H522 lung
NCI/ADR-RES ovarian = system: NCI/ADR-RES ovarian
OVCAR-4 ovarian = system: OVCAR-4 ovarian
OVCAR-5 ovarian = system: OVCAR-5 ovarian
OVCAR-8 ovarian = system: OVCAR-8 ovarian
PC-3 prostate = system: PC-3 prostate
RPMI-8226 leukemia = system: RPMI-8226 leukemia
RXF 393 renal = system: RXF 393 renal
SF-268 CNS = system: SF-268 CNS
SF-295 CNS = system: SF-295 CNS
SF-539 CNS = system: SF-539 CNS
SK-MEL-2 melanoma = system: SK-MEL-2 melanoma
SK-MEL-28 melanoma = system: SK-MEL-28 melanoma
SK-MEL-5 melanoma = system: SK-MEL-5 melanoma
SK-OV-3 ovarian = system: SK-OV-3 ovarian
SN12C renal = system: SN12C renal
SNB-19 CNS = system: SNB-19 CNS
SNB-75 CNS = system: SNB-75 CNS
SR leukemia = system: SR leukemia
SW-620 colon = system: SW-620 colon
T-47D breast = system: T-47D breast
TK-10 renal = system: TK-10 renal
U251 CNS = system: U251 CNS
UACC-257 melanoma = system: UACC-257 melanoma
UACC-62 melanoma = system: UACC-62 melanoma
UO-31 renal = system: UO-31 renal

What does the source list for `O=C(NCCCNc1cc(-c2cn(-c3ccccc3)nc2-c2cccc(O)c2)ccn1)Nc1cccc(C(F)(F)F)c1`?
GI50 (786-0 renal): 1.07 µM; TGI (786-0 renal): 3.71 µM; GI50 (A498 renal): 3.17 µM; TGI (A498 renal): 7.18 µM; GI50 (A549 NSCLC): 3.35 µM; TGI (A549 NSCLC): 11.2 µM; GI50 (ACHN renal): 5.23 µM; TGI (ACHN renal): 15.5 µM; GI50 (BT-549 breast): 3.26 µM; TGI (BT-549 breast): 7.63 µM; GI50 (CAKI-1 renal): 1.9 µM; TGI (CAKI-1 renal): 12.3 µM; GI50 (CCRF-CEM leukemia): 1.71 µM; TGI (CCRF-CEM leukemia): 33.3 µM; GI50 (COLO 205 colon): 2.97 µM; TGI (COLO 205 colon): 8.72 µM; GI50 (DU-145 prostate): 4.8 µM; TGI (DU-145 prostate): 11.9 µM; GI50 (EKVX NSCLC): 3.5 µM; TGI (EKVX NSCLC): 8.45 µM; GI50 (HCC-2998 colon): 1.26 µM; TGI (HCC-2998 colon): 4.34 µM; GI50 (HCT-116 colon): 1.97 µM; TGI (HCT-116 colon): 6.33 µM; GI50 (HCT-15 colon): 1.06 µM; TGI (HCT-15 colon): 4.32 µM; GI50 (HL-60(TB) leukemia): 3.42 µM; TGI (HL-60(TB) leukemia): 14.5 µM; GI50 (HOP-62 NSCLC): 4.09 µM; TGI (HOP-62 NSCLC): 9.59 µM; GI50 (HOP-92 NSCLC): 1.25 µM; TGI (HOP-92 NSCLC): 6.01 µM; GI50 (HS 578T breast): 1.34 µM; TGI (HS 578T breast): 7.74 µM; GI50 (HT29 colon): 1.51 µM; TGI (HT29 colon): 6.19 µM; GI50 (IGROV1 ovarian): 2.83 µM; TGI (IGROV1 ovarian): 7.89 µM; GI50 (K-562 leukemia): 1.26 µM; TGI (K-562 leukemia): 33.3 µM; GI50 (KM12 colon): 2.63 µM; TGI (KM12 colon): 7.39 µM; GI50 (M14 melanoma): 2.18 µM; TGI (M14 melanoma): 6.99 µM; GI50 (MALME-3M melanoma): 1.54 µM; TGI (MALME-3M melanoma): 6.08 µM; GI50 (MCF7 breast): 2.73 µM; TGI (MCF7 breast): 9.39 µM; GI50 (MDA-MB-231 breast): 2.85 µM; TGI (MDA-MB-231 breast): 7.76 µM; GI50 (MDA-MB-435): 3.41 µM; TGI (MDA-MB-435): 7.57 µM; GI50 (MOLT-4 leukemia): 1.67 µM; TGI (MOLT-4 leukemia): 15 µM; GI50 (NCI-H226 lung): 4.88 µM; TGI (NCI-H226 lung): 11.5 µM; GI50 (NCI-H23 lung): 4.34 µM; TGI (NCI-H23 lung): 9.34 µM; GI50 (NCI-H460 lung): 3.48 µM; TGI (NCI-H460 lung): 8.89 µM; GI50 (NCI-H522 lung): 5.12 µM; TGI (NCI-H522 lung): 11 µM; GI50 (NCI/ADR-RES ovarian): 4.9 µM; TGI (NCI/ADR-RES ovarian): 12.8 µM; GI50 (OVCAR-4 ovarian): 2.13 µM; TGI (OVCAR-4 ovarian): 7.75 µM; GI50 (OVCAR-5 ovarian): 3.96 µM; TGI (OVCAR-5 ovarian): 9.71 µM; GI50 (OVCAR-8 ovarian): 3.88 µM; TGI (OVCAR-8 ovarian): 10 µM; GI50 (PC-3 prostate): 1.79 µM; TGI (PC-3 prostate): 11.2 µM; GI50 (RPMI-8226 leukemia): 0.727 µM; TGI (RPMI-8226 leukemia): 6.12 µM; GI50 (RXF 393 renal): 1.08 µM; TGI (RXF 393 renal): 4.96 µM; GI50 (SF-268 CNS): 3.26 µM; TGI (SF-268 CNS): 9.69 µM; GI50 (SF-295 CNS): 1.76 µM; TGI (SF-295 CNS): 6.42 µM; GI50 (SF-539 CNS): 2.78 µM; TGI (SF-539 CNS): 7.18 µM; GI50 (SK-MEL-2 melanoma): 5.29 µM; TGI (SK-MEL-2 melanoma): 11.7 µM; GI50 (SK-MEL-28 melanoma): 3.48 µM; TGI (SK-MEL-28 melanoma): 7.51 µM; GI50 (SK-MEL-5 melanoma): 3.25 µM; TGI (SK-MEL-5 melanoma): 7.16 µM; GI50 (SK-OV-3 ovarian): 4.49 µM; TGI (SK-OV-3 ovarian): 10.1 µM; GI50 (SN12C renal): 3.65 µM; TGI (SN12C renal): 7.91 µM; GI50 (SNB-19 CNS): 3.99 µM; TGI (SNB-19 CNS): 8.97 µM; GI50 (SNB-75 CNS): 0.743 µM; TGI (SNB-75 CNS): 4.1 µM; GI50 (SR leukemia): 1.65 µM; TGI (SR leukemia): 12.8 µM; GI50 (SW-620 colon): 3.85 µM; TGI (SW-620 colon): 8.31 µM; GI50 (T-47D breast): 3.42 µM; TGI (T-47D breast): 16.7 µM; GI50 (TK-10 renal): 5.75 µM; TGI (TK-10 renal): 13.2 µM; GI50 (U251 CNS): 2.57 µM; TGI (U251 CNS): 7.45 µM; GI50 (UACC-257 melanoma): 4.8 µM; TGI (UACC-257 melanoma): 10.1 µM; GI50 (UACC-62 melanoma): 4.41 µM; TGI (UACC-62 melanoma): 8.84 µM; GI50 (UO-31 renal): 2.1 µM; TGI (UO-31 renal): 10.8 µM
